Experimental data taken from paper PMC12305873, “Chlorinated biscoumarins inhibit chikungunya virus replication in cell-based and animal models” (Emerging Microbes & Infections, 2025).
Entries after “also recorded” stand apart in the source; their conditions may differ.

Assays:
CHIKV [1] = assay: Time-of-addition and time-of-removal assay in Vero cells; details: 10 µM, MOI 1
C57BL/6 mice [2] = assay: Single-dose acute oral toxicity in mice; details: for Activity scores / Kidney histology / Liver (ALT) and kidney (creatinine) biomarkers / Survival and clinical signs over 7 days: single oral dose 250 or 500 mg/kg; for Liver (ALT) and kidney (creatinine) biomarkers: days 1, 3, 7; for Survival and clinical signs over 7 days / Tolerability of a single oral dose: mice; for Liver histology: single oral dose, day 1, also seen in vehicle-treated animals; for Tolerability of a single oral dose: up to 500 mg/kg
CHIKV [3] = assay: In vivo anti-CHIKV efficacy, CHIKV-induced arthritis mouse model; details: for PMN infiltration in footpad (H&E), day 1 / PMN infiltration in footpad (H&E), days 2 and 3: compounds single oral 250 mg/kg, ribavirin 50 mg/kg BID IP; for Foot swelling and activity vs vehicle group: single oral 250 mg/kg at 24 h after infection, transient, not significantly different from vehicle
[4] = Pharmacokinetic study in mice; details: for AUC / AUC(0-inf) / AUC(0-t) / CL/F / MRT inf / MRT last / Tmax / Cmax / half-life: C57BL/6, mouse, in vivo, po; for AUC / AUC(0-inf) / AUC(0-t) / CL/F / MRT inf / MRT last / Tmax / Cmax / half-life / HL (half-life): 250 mg/kg; for Cmax / half-life / Time within which plasma concentration fell below EC90 and EC50 / AUC_% Extrap_obs / Vz_F_obs / HL (half-life): mice, oral 250 mg/kg; for half-life: HL (half-life)
[5] = Cytotoxicity assay alongside the replicon assay; details: hamster
CHIKV replicon = CHIKV replicon inhibition assay (Renilla luciferase) in BHK-21 cells; details: Chikungunya virus, BHK-21, 24 h, read-out: EC50, CHIKV replicon inhibition (printed IC50 in Figure 2g,h and b75)
C57BL/6 mice [6] = assay: Multiple-dose toxicity in mice; details: for Activity scores / behaviour / Creatinine / Histopathology of liver tissues / Histopathology of renal tissues: compound 3 250 mg/kg oral BID 3 days, ribavirin 50 mg/kg BID I.P.
[7] = Pharmacokinetic study in rats; details: for AUC / AUC(0-inf) / AUC(0-t) / CL/F / MRT inf / MRT last / Cmax / half-life / Tmax / AUC_% Extrap_obs / Vz_F_obs / HL (half-life): rat; for AUC / AUC(0-inf) / AUC(0-t) / CL/F / MRT inf / MRT last / Cmax / half-life / Tmax / HL (half-life): 250 mg/kg; for half-life: HL (half-life)
CHIKV nsP1 = CHIKV nsP1 (Chikungunya virus, UniProt Q8JUX6); assay: MTase-Glo methyltransferase assay; details: At 50 µM (method: 100 µM), purified CHIKV nsP1
Chain of CHIKV nsP1 (Q8JUX6 1-535): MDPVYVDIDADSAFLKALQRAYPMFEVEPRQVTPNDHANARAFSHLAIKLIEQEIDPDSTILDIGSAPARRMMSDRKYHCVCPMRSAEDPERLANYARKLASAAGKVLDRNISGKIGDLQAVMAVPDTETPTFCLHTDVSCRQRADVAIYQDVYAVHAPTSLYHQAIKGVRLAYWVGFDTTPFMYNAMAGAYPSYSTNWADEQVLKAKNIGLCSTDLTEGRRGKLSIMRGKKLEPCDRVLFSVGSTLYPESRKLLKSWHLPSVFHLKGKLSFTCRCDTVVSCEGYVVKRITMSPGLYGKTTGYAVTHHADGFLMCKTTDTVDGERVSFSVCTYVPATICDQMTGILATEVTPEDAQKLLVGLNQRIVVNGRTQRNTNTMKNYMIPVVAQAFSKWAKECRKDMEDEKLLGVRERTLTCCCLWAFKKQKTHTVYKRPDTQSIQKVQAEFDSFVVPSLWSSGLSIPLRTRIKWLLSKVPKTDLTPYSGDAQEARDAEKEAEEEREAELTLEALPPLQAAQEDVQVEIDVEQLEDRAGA

[8] = system: dengue virus NS5 methyltransferase (MTase); design: method as in Loeanurit et al., under review; details: targeting the SAM binding site; ref Loeanurit et al., under review; cited from earlier work
Sprague Dawley rats = assay: ALT and Cr levels in rat plasma samples of the PK study; details: single oral 250 mg/kg, plasma at 24, 48, 72 h
CHIKV [9] = assay: CHIKV plaque assay in HEK 293 cells; details: Chikungunya virus, HEK293, read-out: EC50, CHIKV inhibition
CHIKV [10] = assay: Cell-based anti-attachment assay in Vero cells; details: 10 µM; for CHIKV inhibition, post-incubation or throughout / CHIKV inhibition, pre-treatment, pre-incubation or co-incubation: Vero, MOI 0.1, 24 hpi; for Effect of compound pre-treatment on viral replication: cells treated 1 h before virus
CHIKV [11] = assay: CHIKV plaque assay in Vero cells; details: Chikungunya virus, read-out: EC50, CHIKV inhibition
[12] = Cytotoxicity by MTS assay in HEK 293 cells; details: human
[13] = Peak plasma concentration (Cmax)
[14] = Sprague Dawley, in vivo, po, Cmax, oral 250 mg/kg, mean ± SD
[15] = Sprague Dawley, in vivo, po, oral 250 mg/kg, mean ± SD
[16] = Sprague Dawley, in vivo, po, Peak plasma concentration (Cmax), rats, oral 250 mg/kg
[17] = Sprague Dawley, in vivo, po, Tmax, oral 250 mg/kg, mean ± SD

## O=c1oc2ccccc2c(O)c1C(c1cccc(Cl)c1)c1c(O)c2ccccc2oc1=O [compound 3, 3,3′-((3-chlorophenyl)methylene)bis(4-hydroxy-2H-chromen-2-one)]
CHIKV [1]
  Time-of-addition time-points significantly different from DMSO control: 3–9 hpi
  Viral replication in time-of-removal (TOR) assay: viral replication resumed upon compound removal at 12 hpi
  Viral titres in time-of-addition (TOA) assay: significantly reduced viral titres when added up to 9 hpi; also recorded: persisted when added as late as 12 hours post-infection
C57BL/6 mice [2]; single oral dose 500 mg/kg, not statistically significant, resolved
  Serum ALT on day 1: slight increase
C57BL/6 mice [2]
  Activity scores: no significant difference in activity scores
  Kidney histology: remained within normal limits
  Liver (ALT) and kidney (creatinine) biomarkers: remained within normal limits
  Survival and clinical signs over 7 days: All animals survived
  Liver histology: Mild, transient hepatocellular vacuolization
  Tolerability of a single oral dose: well tolerated
CHIKV [3]; CHIKV-infected mice, single oral 250 mg/kg
  Body weight: greater body weight loss than other groups
CHIKV [3]
  PMN infiltration in footpad (H&E), day 1: reduced PMN infiltration on day 1
  PMN infiltration in footpad (H&E), days 2 and 3: PMN infiltration persisting at moderate levels
  Foot swelling and activity vs vehicle group: moderate improvement in foot swelling and activity
CHIKV [3]; single oral 250 mg/kg
  CHIKV titres in footpad tissues, plaque assay, day 2 post-infection: significantly reduced CHIKV titres in footpad tissues
  Footpad swelling, tissue viral loads and systemic viremia (discussion summary): significantly reduced footpad swelling, viral loads in infected tissues, and systemic viremia
  Infectious viral titres in footpad tissue, plaque titration, day 3: maintaining efficacy through day 3 howbeit not significantly
  Systemic viremia (plasma CHIKV titres, plaque assay): no marked reduction in systemic viremia
  Viral RNA levels in footpad tissue (RT-qPCR): marked reduction by day 3
[4]
  AUC: 909 µg·h/mL
  AUC(0-inf): 909 ± 835 µg·h/mL
  AUC(0-t): 909 ± 835 µg·h/mL
  CL/F: 18.3 mL/min/kg
  MRT inf: 10.6 ± 0.728 h
  MRT last: 10.5 ± 0.646 h
  Tmax: 10 ± 3.46 h
  Time within which plasma concentration fell below EC90 and EC50: 24 to 48 h
[4]; Cmax, mean ± SD
  Cmax: 68.9 ± 64.1 µg/mL
[4]; mean ± SD
  half-life: 4.16 h
  AUC_% Extrap_obs: 0.124 ± 0.185%
  Vz_F_obs: 7.963 ± 11.841 L/kg
  HL (half-life): 4.163 ± 0.941 h
[4]; [13]
  Cmax: 68.9 µg/mL
[5]
  CC50: 100.5 ± 0.11 µM
CHIKV replicon
  EC50: 6.64 ± 0.86 µM
C57BL/6 mice [6]; 250 mg/kg oral BID for 3 days
  Serum ALT by day 3 vs vehicle and ribavirin groups: markedly elevated
C57BL/6 mice [6]
  Activity scores / behaviour: activity scores increased by day 2
  Creatinine: remained within normal limits
  Histopathology of liver tissues: hepatocellular vacuolization and mononuclear infiltration
  Histopathology of renal tissues: proximal tubular edema and vacuolization
[7]; Sprague Dawley, in vivo, po
  AUC: 1090 µg·h/mL
  AUC(0-inf): 1100 ± 633 µg·h/mL
  AUC(0-t): 1090 ± 646 µg·h/mL
  CL/F: 5.65 mL/min/kg
  MRT inf: 14.5 ± 5.73 h
  MRT last: 12.9 ± 5.73 h
[7]; [14]
  Cmax: 80.7 ± 39.9 µg/mL
[7]; [15]
  half-life: 7.92 h
[7]; [16]
  Cmax: 80.7 µg/mL
[7]; [17]
  Tmax: 9.33 h
[7]; oral 250 mg/kg, mean ± SD
  AUC_% Extrap_obs: 2.128 ± 3.659%
  Vz_F_obs: 5.672 ± 8.054 L/kg
  HL (half-life): 7.922 ± 6.558 h
  Tmax: 9.333 ± 2.309 h
[7]; rats, oral 250 mg/kg
  Time within which plasma concentration fell below EC90 and EC50: 24 to 48 h
CHIKV nsP1
  nsP1 methyltransferase enzymatic activity vs DMSO control: significantly inhibited enzymatic activity
[8]
  Inhibition of dengue virus NS5 methyltransferase: inhibitors of the dengue virus NS5 methyltransferase (MTase)
Sprague Dawley rats
  ALT and Cr levels: within normal limits
CHIKV [9]
  EC50: 3.08 ± 0.45 µM
CHIKV [10]
  CHIKV inhibition, post-incubation or throughout: robust antiviral activity was observed
  CHIKV inhibition, pre-treatment, pre-incubation or co-incubation: Neither compound exhibited significant inhibition
  Effect of compound pre-treatment on viral replication: enhanced the viral replication
CHIKV [11]
  EC50: 2.85 ± 0.42 µM

## O=c1oc2ccccc2c(O)c1C(c1ccc(Cl)cc1)c1c(O)c2ccccc2oc1=O [compound 4, 3,3′-((4-chlorophenyl)methylene)bis(4-hydroxy-2H-chromen-2-one)]
CHIKV [1]
  Time-of-addition time-points significantly different from DMSO control: 1–6 hpi
  Viral titres in time-of-addition (TOA) assay: significantly reduced viral titres when added up to 9 hpi
[12]
  CC50 at 2 days: 44.4 ± 1.48 µM
C57BL/6 mice [2]
  Activity scores: no significant difference in activity scores
  Kidney histology: remained within normal limits
  Liver (ALT) and kidney (creatinine) biomarkers: remained within normal limits
  Survival and clinical signs over 7 days: All animals survived
  Liver histology: Mild, transient hepatocellular vacuolization
  Tolerability of a single oral dose: well tolerated
CHIKV [3]
  PMN infiltration in footpad (H&E), day 1: reduced PMN infiltration on day 1
  PMN infiltration in footpad (H&E), days 2 and 3: PMN infiltration persisting at moderate levels
  Foot swelling and activity vs vehicle group: moderate improvement in foot swelling and activity
CHIKV [3]; single oral 250 mg/kg
  CHIKV titres in footpad tissues, plaque assay, day 2 post-infection: significantly reduced CHIKV titres in footpad tissues
  Systemic viremia (plasma CHIKV titres, plaque assay): no marked reduction in systemic viremia
[4]
  AUC: 2750 µg·h/mL
  AUC(0-inf): 2750 ± 927 µg·h/mL
  AUC(0-t): 2750 ± 927 µg·h/mL
  CL/F: 1.67 mL/min/kg
  MRT inf: 10.1 ± 0.366 h
  MRT last: 10.1 ± 0.356 h
  Tmax: 6 h
  Time within which plasma concentration fell below EC90 and EC50: 24 to 48 h
[4]; Cmax, mean ± SD
  Cmax: 197 ± 77 µg/mL
[4]; mean ± SD
  half-life: 3.42 h
  AUC_% Extrap_obs: 0.018 ± 0.014%
  Vz_F_obs: 0.494 ± 0.200 L/kg
  HL (half-life): 3.422 ± 0.419 h
[4]; [13]
  Cmax: 197 µg/mL
[5]
  CC50: 79.87 ± 0.4 µM
CHIKV replicon
  EC50: 5.04 ± 0.23 µM
[7]; Sprague Dawley, in vivo, po
  AUC: 4180 µg·h/mL
  AUC(0-inf): 4440 ± 1730 µg·h/mL
  AUC(0-t): 4180 ± 1640 µg·h/mL
  CL/F: 1.08 mL/min/kg
  MRT inf: 26.77 ± 0.127 h
  MRT last: 22.2 ± 0.801 h
[7]; [14]
  Cmax: 133 ± 40.8 µg/mL
[7]; [15]
  half-life: 16.6 h
[7]; [16]
  Cmax: 133 µg/mL
[7]; [17]
  Tmax: 10.7 h
[7]; oral 250 mg/kg, mean ± SD
  AUC_% Extrap_obs: 6.119 ± 0.999%
  Vz_F_obs: 1.596 ± 0.946 L/kg
  HL (half-life): 16.649 ± 1.601 h
  Tmax: 10.667 ± 2.309 h
CHIKV nsP1
  nsP1 methyltransferase enzymatic activity vs DMSO control: significantly inhibited enzymatic activity
[8]
  Inhibition of dengue virus NS5 methyltransferase: inhibitors of the dengue virus NS5 methyltransferase (MTase)
Sprague Dawley rats
  ALT and Cr levels: within normal limits
CHIKV [9]
  EC50: 4.65 ± 0.56 µM
CHIKV [10]
  CHIKV inhibition, post-incubation or throughout: robust antiviral activity was observed
  CHIKV inhibition, pre-treatment, pre-incubation or co-incubation: Neither compound exhibited significant inhibition
  Effect of compound pre-treatment on viral replication: enhanced the viral replication
CHIKV [11]
  EC50: 2.9 ± 0.25 µM

## NC(=O)c1ncn([C@@H]2O[C@H](CO)[C@@H](O)[C@H]2O)n1 [ribavirin, Ribavirin, reference compound]
CHIKV [3]
  PMN infiltration in footpad (H&E), day 1: reduced PMN infiltration on day 1
  PMN infiltration in footpad (H&E), days 2 and 3: PMN infiltration persisting at moderate levels
C57BL/6 mice [6]
  Activity scores / behaviour: maintained normal behaviour and activity
  Creatinine: remained within normal limits
  Histopathology of liver tissues: No pathological abnormalities were observed
  Histopathology of renal tissues: No pathological abnormalities were observed
